In test [1] the test system is K562-Lucena 1. Put plainly: Induction of cell cycle arrest in human K562-Lucena 1 cells assessed as necrotic cells at 2 mM after 24 hrs by propidium iodide staining based flow cytometric analysis (reference value: 1.03%). It is filed as functional.
The subject of test [2] is K562. Description: Induction of morphological changes in human K562 cells assessed as appearance of condensed chromatin at 2 mM incubated for 48 hrs by DAPI staining based fluorescence microscopy. The format is functional, cell-based.
The test system of test [3] is K562. Put plainly: Induction of apoptosis in human K562 cells assessed as necrotic cells at 2 mM after 24 hrs by Annexin V-FITC/PI double staining based flow cytometry analysis (reference value: 0.085%). The format is functional. (In general: Flow cytometry measures light scatter and fluorescence of single cells or particles in a stream.)
Test [4] deals with K562. Put plainly: Induction of DNA fragmentation in human K562 cells at 2 mM incubated for 48 hrs by DAPI staining based fluorescence microscopy. It is filed as functional, cell-based.
Test [5] relates to K562. Description: Induction of apoptosis in human K562 cells assessed as late apoptotic cells at 2 mM after 24 hrs by Annexin V-FITC/PI double staining based flow cytometry analysis (reference value: 0.79%). It is filed as functional.
Test [6] concerns K562. Description: Induction of apoptosis in human K562 cells assessed as late apoptotic cells at 2 mM after 48 hrs by Annexin V-FITC/PI double staining based flow cytometry analysis (reference value: 0.41%). The format is functional.
Test [7] relates to K562. Put plainly: Induction of morphological changes in human K562 cells assessed as appearance of apoptotic bodies at 2 mM incubated for 48 hrs by DAPI staining based fluorescence microscopy. The format is functional, cell-based.
Test [8] relates to K562-Lucena 1. Put plainly: Induction of morphological changes in human K562-Lucena 1 cells assessed as appearance of condensed chromatin at 2 mM incubated for 48 hrs by DAPI staining based fluorescence microscopy. It is filed as functional, cell-based.
Test [9] relates to K562-Lucena 1. Description: Induction of cell cycle arrest in human K562-Lucena 1 cells assessed as late apoptotic cells at 2 mM after 24 hrs by propidium iodide staining based flow cytometric analysis (reference value: 3.15%). It is filed as functional.
The test system of test [10] is K562-Lucena 1. Description: Induction of DNA fragmentation in human K562-Lucena 1 cells at 2 mM incubated for 48 hrs by DAPI staining based fluorescence microscopy. The format is functional, cell-based.
The test system of test [11] is K562-Lucena 1. Put plainly: Induction of cell cycle arrest in human K562-Lucena 1 cells assessed as viable cells at 2 mM after 24 hrs by propidium iodide staining based flow cytometric analysis (reference value: 88%). The format is functional. The note with it: K562-Lucena 1, 24 h, read-out: Activity.
Test [12] deals with K562. Put plainly: Induction of apoptosis in human K562 cells assessed as viable cells at 2 mM after 24 hrs by Annexin V-FITC/PI double staining based flow cytometry analysis (Rvb =96.4%). The format is functional. The settings on record: K562, 24 h, read-out: Activity.
Test [13] deals with K562. Put plainly: Induction of apoptosis in human K562 cells assessed as necrotic cells at 2 mM after 48 hrs by Annexin V-FITC/PI double staining based flow cytometry analysis (reference value: 0.13%). It is filed as functional.
The subject of test [14] is K562-Lucena 1. Description: Induction of morphological changes in human K562-Lucena 1 cells assessed as appearance of apoptotic bodies at 2 mM incubated for 48 hrs by DAPI staining based fluorescence microscopy. It is filed as functional, cell-based.
Test [15] deals with K562-Lucena 1. Description: Induction of cell cycle arrest in human K562-Lucena 1 cells assessed as early apoptotic cells at 2 mM after 24 hrs by propidium iodide staining based flow cytometric analysis (reference value: 7.79%). The format is functional.
For test [16], the system named is K562-Lucena 1. Put plainly: Induction of cell cycle arrest in human K562-Lucena 1 cells assessed as viable cells at 2 mM after 48 hrs by propidium iodide staining based flow cytometric analysis (reference value: 87.1%). It is filed as functional. The settings on record: K562-Lucena 1, 48 h, read-out: Activity.
In test [17] the test system is K562. Description: Induction of apoptosis in human K562 cells assessed as early apoptotic cells at 2 mM after 48 hrs by Annexin V-FITC/PI double staining based flow cytometry analysis (reference value: 1.67%). It is filed as functional.
In test [18] the test system is K562. Description: Induction of apoptosis in human K562 cells assessed as viable cells at 2 mM after 48 hrs by Annexin V-FITC/PI double staining based flow cytometry analysis (Rvb =97.8%). It is filed as functional. The note with it: K562, 48 h, read-out: Activity.
In test [19] the test system is K562-Lucena 1. Description: Induction of cell cycle arrest in human K562-Lucena 1 cells assessed as necrotic cells at 2 mM after 48 hrs by propidium iodide staining based flow cytometric analysis (reference value: 2.15%). It is filed as functional.
The test system of test [20] is K562. Put plainly: Induction of apoptosis in human K562 cells assessed as early apoptotic cells at 2 mM after 24 hrs by Annexin V-FITC/PI double staining based flow cytometry analysis (reference value: 2.76%). The format is functional.
Test [21] has as its system K562-Lucena 1. Put plainly: Induction of cell cycle arrest in human K562-Lucena 1 cells assessed as early apoptotic cells at 2 mM after 48 hrs by propidium iodide staining based flow cytometric analysis (reference value: 7.57%). The format is functional.
Test [22] has as its system K562-Lucena 1. Put plainly: Induction of cell cycle arrest in human K562-Lucena 1 cells assessed as late apoptotic cells at 2 mM after 48 hrs by propidium iodide staining based flow cytometric analysis (reference value: 3.23%). It is filed as functional.
Test [23] relates to K562-Lucena 1. Description: Induction of cell cycle arrest in human K562-Lucena 1 cells assessed as decrease in accumulation of cells at G1 phase at 40 uM after 24 hrs by propidium iodide staining based flow cytometric analysis. The format is functional.
Test [24] relates to K562. Put plainly: Induction of cell cycle arrest in human K562 cells assessed as decrease in accumulation of cells at S phase at 1.4 uM after 24 hrs by propidium iodide staining based flow cytometric analysis. It is filed as functional.
Test [25] relates to K562. Put plainly: Cytotoxicity against human K562 cells after 48 hrs by MTT assay. It is filed as functional, cell-based. The note with it: K562, 48 h. (In general: Tetrazolium dyes change colour on reduction, which living cells bring about.)
For another test, the system named is ADR5000 cell line. Put plainly: Cytotoxicity against human CEM/ADR5000 cells after 48 hrs by MTT assay. The settings on record: ADR5000, 48 h. The format is functional, cell-based.
For test [26], the system named is K562-Lucena 1. Description: Cytotoxicity against human K562-Lucena 1 cells after 48 hrs by MTT assay. It is filed as functional, cell-based. The settings on record: K562-Lucena 1, 48 h.
Another test relates to CCRF-CEM. Put plainly: Cytotoxicity against human CCRF-CEM cells after 48 hrs by MTT assay. The format is functional, cell-based.
The test system of test [27] is K562. Description: Induction of cell cycle arrest in human K562 cells assessed as decrease in accumulation of cells at G1 phase at 1.4 uM after 24 hrs by propidium iodide staining based flow cytometric analysis. The format is functional.

The source made the active and inactive calls. The rule behind the calls is not given here.

This note sets out measurements from ChEMBL document CHEMBL4622878, “Cytotoxic Activity of Germacrane-Type Sesquiterpene Lactones from Dimerostemma aspilioides” (J Nat Prod, 2020).

In the case of `NC(=O)NO` [HYDROXYUREA], the Activity came to 1.99% with K562-Lucena 1 [1]; 0.75% in the test with K562 [3]; 0.45% with K562 [5]; 6.06% in the test on K562 [6]; 5.06% with K562-Lucena 1 [9]; 1.5% in the test on K562 [13]. Also, the Activity was 15.3% in the test with K562-Lucena 1 [15]; 21.9% with K562 [17]; 5.57% with K562-Lucena 1 [19]; 2.82% in the test with K562 [20]; 22.1% in the test on K562-Lucena 1 [21]; 12.2% with K562-Lucena 1 [22]. In addition, the outcome in the test on K562 [2], in the test with K562 [4], in the test with K562 [7], in the test with K562-Lucena 1 [8], in the test on K562-Lucena 1 [10] and in the test with K562-Lucena 1 [14] was Active. The viability at 2000 µM is 77.7% with K562-Lucena 1 [11], 96% with K562 [12], 60.1% in the test with K562-Lucena 1 [16] and 70.5% with K562 [18].
A word on the IC50: it is the concentration at which inhibition is half-maximal. In the case of `COc1cccc2c1C(=O)c1c(O)c3c(c(O)c1C2=O)C[C@@](O)(C(=O)CO)C[C@@H]3O[C@H]1C[C@H](N)[C@H](O)[C@H](C)O1` [DOXORUBICIN], the outcome in the test on K562-Lucena 1 [23] was Active. In addition, the result with K562 [24] and in the test with K562 [27] was inactive. Moreover, the IC50 was 1.4 µM in the test with K562 [25], above 10 µM in the test on ADR5000 cell line, above 10 µM in the test with K562-Lucena 1 [26] and 0.17 µM in the test on CCRF-CEM.
Consider `C=C(CO)C(=O)O[C@H]1C[C@@]2(C=O)OC2CC/C(C)=C/[C@H]2OC(=O)C(=C)[C@H]12` (stereo partly specified), for which the half-inhibitory concentration (IC50) was 6.9 µM in the test on K562 [25], 4.6 µM in the test with ADR5000 cell line, above 10 µM with K562-Lucena 1 [26] and 2 µM in the test with CCRF-CEM.
Taken in the same sequence, the figures for `C=C(CO)C(=O)O[C@H]1C/C(CO)=C/CC/C(C)=C/[C@H]2OC(=O)C(=C)[C@H]12` were 7 µM, 1.7 µM, above 10 µM and 0.46 µM.
In the case of `C=C(CO)C(=O)O[C@H]1C/C(COC(C)=O)=C/CC/C(C)=C/[C@H]2OC(=O)C(=C)[C@H]12`, the IC50 with K562 [25] was above 10 µM; in the test on ADR5000 cell line, 7.7 µM; in the test on K562-Lucena 1 [26], above 10 µM; with CCRF-CEM, 3.5 µM.
